# Laboratory results as given in patent US20050208149A1, “Use of arsenic-containing pharmaceutical composition in combination with radiation therapy for cancer treatment” (TTY Biopharm Limited Company, priority 2004, published 2005).
# Values joined by “and” are separate entries in the source; they are usually repeats but may differ in a detail not shown here. Equal entries are not always repeated.
# What was measured:
# [1] = system: breast cancer patients with superficial fungating or skin-infiltrating tumors; test: Monitoring for adverse effects (CTC version 2.0) during combined topical As2O3 and radiation treatment; type: in vivo, human; details: for Acute radiation dermatitis, case number / Anorexia, case number / Chronic radiation dermatitis, case number / Fatigue, case number / Granulocytosis, case number / Hyperpigmentation, case number / Leukopenia, case number / Nausea, case number / Thrombocytopenia, case number / Vomit, case number: of 7 patients, topical As2O3 + radiation
# Source text: (§1) Between December 2001 and March 2003, seven patients of breast cancer with superficial fungating or skin-infiltrating tumors who had undergone standard treatments received topical As2O3 and radiotherapy at Mackay Memorial Hospital (Table 3). Eligibility criteria for the study included diagnosis of breast cancer confirmed by pathological examination. In addition, patients had to have relapsed after standard treatments such as surgery, radiation therapy or chemotherapy. Six patients had received post-operative radiation to the chest wall and axillary area. Written informed consent was required, and the study protocol was viewed and approved by the institutional review board of the Mackay Memorial Hospital.
# (§2) As2O3 gel prepared by Example 2 was administered in daily topical doses that ranged from 0.01 to 0.5 mg/cm2/day, preferred from 0.05-0.15 mg/cm2/day. The gel was administered 1 h prior to the daily radiation treatment and was subsequently removed 5 min prior to the radiation exposure. Electron beam radiotherapy was delivered using a linear accelerator (9-12 MeV, dose rate 2.4 Gy/min; Clinac 1800; Varian Associates, Palo Alto, Calif.). Radiation was administered 5 days a week (total dose: 50 Gy in 25 fractions or 30 Gy in 10 fractions).
# With regard to drug absorption via skin, possible systemic adverse effects were evaluated. Serial blood counts and serum chemistry profiles were performed. Serum chemistry profiles, including alanine aminotransferase, aspartate aminotransferase, blood urine nitrogen and creatinine, were measured using a Synchron LX20 spectrophotometer (Beckman Coulter, San Diego, Calif.). An electrocardiogram was recorded before and after irradiation for each patient. Adverse effect and toxicity were evaluated according to the Common Toxicity Criteria (CTC) version 2.0 published by the DCTD, NCI, NIH and DHHS in 1999.
# [2] = system: cutaneous metastatic breast cancer; details: topical As2O3 alone; Cheng 2003; cited from earlier work
# [3] = system: breast cancer patients with superficial fungating or skin-infiltrating tumors; test: Assessment of response: topical As2O3 gel plus electron beam radiotherapy; type: in vivo, human; parameters: key to Tumor response: Complete: A complete response was defined as the disappearance of all known skin lesions within radiation fields confirmed by subsequent observation at least 4 weeks apart; Partial: a decrease in the sum of the maximal perpendicular diameters for involved skin area within radiation fields by more than 50%; Progressive: at least 25% increase in the sum of the maximal perpendicular diameters for involved skin area or the appearance of new lesions within radiation fields; Stable: All other tumor outcomes were classified as stable disease; details: for Reduction in VAS for skin pain: 100-mm scale
# Source text: as §1, §2
# Observation for tumor response and skin reaction was conducted daily, with photographs taken weekly. A complete response was defined as the disappearance of all known skin lesions within radiation fields confirmed by subsequent observation at least 4 weeks apart. A partial response was defined as a decrease in the sum of the maximal perpendicular diameters for involved skin area within radiation fields by more than 50% which was confirmed by subsequent observation at least 4 weeks apart. Progressive disease was defined as at least 25% increase in the sum of the maximal perpendicular diameters for involved skin area or the appearance of new lesions within radiation fields. All other tumor outcomes were classified as stable disease. For efficacy of pain control, chest wall pain was estimated using a visual analog scale (VAS) as a subjective assessment. The VAS scores before treatment were set as the baseline for every patient, and we compared the changes between subsequent data after treatment and the baseline data. When differences were greater than 50 mm in a 100-mm scale, we identified this patient as a responder. The daily need for changing dressings (CD) of wounds was also recorded by nurses in charge of each patient.
# [4] = system: human cervical cancer cells; details: As2O3 pre-treatment in combination with ionizing radiation; Chun 2002; cited from earlier work
# [5] = system: human cervical tumor xenografts; details: As2O3 pre-treatment in combination with ionizing radiation; Chun 2002; cited from earlier work
# [6] = Wang Z. Y. 2001; cited from earlier work
# [7] = combination of topical As2O3 and radiation, pilot study, seven patients
# [8] = patient 1, skin infiltration, topical As2O3 gel + radiation 50 Gy
# [9] = patient 2, skin infiltration, topical As2O3 gel + radiation 50 Gy
# [10] = patient 3, skin infiltration, topical As2O3 gel + radiation 50 Gy
# [11] = patient 4, fungating tumor, topical As2O3 gel + radiation 50 Gy
# [12] = patient 5, fungating tumor, topical As2O3 gel + radiation 50 Gy
# [13] = patient 6, fungating tumor, topical As2O3 gel + radiation 30 Gy
# [14] = patient 7, fungating tumor, topical As2O3 gel + radiation 50 Gy
molecule,measurement,setting,value
arsenic trioxide [As2O3],"Acute radiation dermatitis, case number",[1]; CTC grade 0,1
same,"Anorexia, case number",[1]; CTC grade 0,4
same,"Chronic radiation dermatitis, case number",[1]; CTC grade 0,4
same,"Fatigue, case number",[1]; CTC grade 0,3
same,"Granulocytosis, case number",[1]; CTC grade 0,6
same,"Hyperpigmentation, case number",[1]; CTC grade 0,7
same,"Leukopenia, case number",[1]; CTC grade 0,7
same,"Nausea, case number",[1]; CTC grade 0,4
same,"Thrombocytopenia, case number",[1]; CTC grade 0,7
same,"Vomit, case number",[1]; CTC grade 0,6
same,"Acute radiation dermatitis, case number",[1]; CTC grade 1,1
same,"Anorexia, case number",[1]; CTC grade 1,2
same,"Chronic radiation dermatitis, case number",[1]; CTC grade 1,2
same,"Fatigue, case number",[1]; CTC grade 1,2
same,"Granulocytosis, case number",[1]; CTC grade 1,1
same,"Hyperpigmentation, case number",[1]; CTC grade 1,0
same,"Leukopenia, case number",[1]; CTC grade 1,0
same,"Nausea, case number",[1]; CTC grade 1,2
same,"Thrombocytopenia, case number",[1]; CTC grade 1,0
same,"Vomit, case number",[1]; CTC grade 1,1
same,"Acute radiation dermatitis, case number",[1]; CTC grade 2,3
same,"Anorexia, case number",[1]; CTC grade 2,1
same,"Chronic radiation dermatitis, case number",[1]; CTC grade 2,1
same,"Fatigue, case number",[1]; CTC grade 2,2
same,"Granulocytosis, case number",[1]; CTC grade 2,0
same,"Hyperpigmentation, case number",[1]; CTC grade 2,0
same,"Leukopenia, case number",[1]; CTC grade 2,0
same,"Nausea, case number",[1]; CTC grade 2,1
same,"Thrombocytopenia, case number",[1]; CTC grade 2,0
same,"Vomit, case number",[1]; CTC grade 2,0
same,"Acute radiation dermatitis, case number",[1]; CTC grade 3,2
same,"Anorexia, case number",[1]; CTC grade 3,0
same,"Chronic radiation dermatitis, case number",[1]; CTC grade 3,0
same,"Fatigue, case number",[1]; CTC grade 3,0
same,"Granulocytosis, case number",[1]; CTC grade 3,0
same,"Leukopenia, case number",[1]; CTC grade 3,0
same,"Nausea, case number",[1]; CTC grade 3,0
same,"Thrombocytopenia, case number",[1]; CTC grade 3,0
same,"Vomit, case number",[1]; CTC grade 3,0
same,"Acute radiation dermatitis, case number",[1]; CTC grade 4,0
same,"Anorexia, case number",[1]; CTC grade 4,0
same,"Chronic radiation dermatitis, case number",[1]; CTC grade 4,0
same,"Fatigue, case number",[1]; CTC grade 4,0
same,"Granulocytosis, case number",[1]; CTC grade 4,0
same,"Leukopenia, case number",[1]; CTC grade 4,0
same,"Thrombocytopenia, case number",[1]; CTC grade 4,0
same,"Vomit, case number",[1]; CTC grade 4,0
same,Time to satisfactory healing of grade 3 acute radiation dermatitis,[1]; after completion of the radiation treatment,2-3 weeks
same,Hematological changes,[1]; combined treatment,no significant hematological changes were observed
same,Number of patients with grade 3 acute radiation dermatitis (most severe observed),[1]; combined treatment,two
same,Other adverse reactions,[1]; combined treatment,light-headedness during irradiation and moderate fatigue after radiation
same,Patients developing grade 3 chronic radiation dermatitis,[1]; combined treatment,none
same,Performance status,[1]; combined treatment,no changes in performance status were evident
same,Dermatological toxicity such as skin rash,"[1]; daily application less than 1 h, treatment not more than 5 weeks",we did not note any toxicity of this type
same,Grade 2-4 granulocytosis or leukopenia,[1]; during the combined therapy,No grade 2-4 granulocytosis or leukopenia was noted
same,"Skin pigmentation, renal or hepatic function",[1]; during the course of the combined treatment,no skin pigmentation or significant changes in renal or hepatic function
same,Local tumor control and wound secretion,[2],improved local tumor control and decreased wound secretion
same,"Systemic absorption, pharmacokinetic study",[2],no significant systemic absorption
same,Systemic or local adverse effects,[2],without significant systemic or local adverse effects
same,Change in mean daily needed CD frequency,"[3]; after treatment for 1 month, all superficial and fungating wounds",4.4 to 0.9
same,"Number of patients resistant, classified as stable disease","[3]; chest wall fungating tumor, of seven patients, combined therapy",One
same,Number of patients with partial remission,"[3]; chest wall fungating tumors, of seven patients, combined therapy",three
same,Number of patients with complete remission,"[3]; chest wall skin-infiltrating lesions, of seven patients, combined therapy",three
same,"Clinical response rate, complete remission",[3]; [7],42.9%
same,"Clinical response rate, partial remission",[3]; [7],42.9%
same,Number of patients with relief of chest wall pain assessed by VAS,"[3]; of seven patients, combined therapy",seven
same,Tumor response,[3]; [8],Complete
same,Reduction in VAS for skin pain,[3]; [8],75 mm
same,Tumor response,[3]; [9],Complete
same,Reduction in VAS for skin pain,[3]; [9],65 mm
same,Tumor response,[3]; [10],Complete
same,Reduction in VAS for skin pain,[3]; [10],80 mm
same,Tumor response,[3]; [11],Partial (a decrease in the sum of the maximal perpendicular diameters for involved skin area within radiation fields by more than 50%)
same,Reduction in VAS for skin pain,[3]; [11],70 mm
same,Tumor response,[3]; [12],Partial (a decrease in the sum of the maximal perpendicular diameters for involved skin area within radiation fields by more than 50%)
same,Reduction in VAS for skin pain,[3]; [12],65 mm
same,Tumor response,[3]; [13],Partial (a decrease in the sum of the maximal perpendicular diameters for involved skin area within radiation fields by more than 50%)
same,Reduction in VAS for skin pain,[3]; [13],75 mm
same,Tumor response,[3]; [14],Stable
same,Reduction in VAS for skin pain,[3]; [14],55 mm
same,Cumulative radiation dosage for remission of chest wall skin lesions,"[3]; the three patients with complete remission, respectively",20 Gy and 22 Gy and 28 Gy
same,Effect on decreased clonogenic survival,[4],synergistic effect
same,Effect on regression of established xenografts,[5],synergistic effect
"S1[As]2S[As]3S[As]2S[As]13 [As4S4, tetraarsenic tetraslfide]",Complete remission rate,[6],84.9%
